# Positions of bridges follow the written chain, without caps; N, C: chain ends. Non-standard residues stand in square brackets, D forms with d. Residues, ends and D or L forms follow the SMILES beside them. Chains are numbered I, II in the order given. *: point of attachment. PEG6 = NCCOCCOCCOCCOCCOCCOCCC(=O)O; Palmitoyl = CCCCCCCCCCCCCCCC(=O)*
# B1: BDNF protein: Human/Murine/Rat BDNF protein (Peprotech) (protein, UniProt P23560 19-247, looked up)
# Neurotrophic factor BDNF …: APMKEANIRGQGGLAYPGVRTHGTLESVNGPKAGSRGLTSLADTFEHVIEELLDEDQKVRPNEENNKDADLYTSRVMLSSQVPLEPPLLFLLEEYKNYLDAANMSMRVRRHSDPARRGELSVCDSISEWVTAADKKTAVDMSGGTVTVLEKVPVSKGQLKQYFYETKCNPMGYTKEGCRGIDKRHWNSQCRTTQSYVRALTMDSKKRIGWRFIRIDTSCVCTLTIKRGR
# Tests used:
# neuronal cells = experiment: Neuronal maturation markers (MAP2, PSD95) by immunocytochemistry and western blot; assay type: cell-based, mouse; details: neuronal cells (14 DIV) cultured during 16 DIV with treatment
# Protocol: Western Blot. Protein was extracted from primary neuronal cultures with Halt Protease and Phosphatase Inhibitor Cocktail (Thermo Scientific) and a BCA assay (Thermo Scientific) was performed to determine protein content of each sample. Cell protein was loaded into and separated using a 4-20% SDS-PAGE gel (Bio-Rad). It was then electrotransferred from the gel to a nitrocellulose membrane (Bio-Rad). The membranes were blocked with 5% milk solution (Bio-Rad) for 30 minutes followed by an overnight incubation with primary antibodies at 4° C. […] Protein signals were detected using Radiance Bioluminescent ECL substrate (Azure Biosystems). Densitometry analysis, standardized to total receptor content or Actin as a control for protein loading, was performed using ImageJ software.^3 For quantification, triplicate samples were analyzed and at least two different experiments were conducted. […]
# TrkB receptor = target: T1, TrkB receptor (Mus musculus, UniProt P15209); experiment: TrkB receptor phosphorylation (p-TrkB) by western blot in primary cortical neurons; assay type: cell-based; details: for TrkB phosphorylation after pre-treatment with inhibitor K252a: K252a 2 h prior to treatment, 6 h post-treatment
# T1 construct: Protein was extracted from primary neuronal cultures; endogenous in cells; host or cells: primary cortical neurons from E16 CD1 mouse embryos, 14 DIV
# T1 sequence (P15209 32-821): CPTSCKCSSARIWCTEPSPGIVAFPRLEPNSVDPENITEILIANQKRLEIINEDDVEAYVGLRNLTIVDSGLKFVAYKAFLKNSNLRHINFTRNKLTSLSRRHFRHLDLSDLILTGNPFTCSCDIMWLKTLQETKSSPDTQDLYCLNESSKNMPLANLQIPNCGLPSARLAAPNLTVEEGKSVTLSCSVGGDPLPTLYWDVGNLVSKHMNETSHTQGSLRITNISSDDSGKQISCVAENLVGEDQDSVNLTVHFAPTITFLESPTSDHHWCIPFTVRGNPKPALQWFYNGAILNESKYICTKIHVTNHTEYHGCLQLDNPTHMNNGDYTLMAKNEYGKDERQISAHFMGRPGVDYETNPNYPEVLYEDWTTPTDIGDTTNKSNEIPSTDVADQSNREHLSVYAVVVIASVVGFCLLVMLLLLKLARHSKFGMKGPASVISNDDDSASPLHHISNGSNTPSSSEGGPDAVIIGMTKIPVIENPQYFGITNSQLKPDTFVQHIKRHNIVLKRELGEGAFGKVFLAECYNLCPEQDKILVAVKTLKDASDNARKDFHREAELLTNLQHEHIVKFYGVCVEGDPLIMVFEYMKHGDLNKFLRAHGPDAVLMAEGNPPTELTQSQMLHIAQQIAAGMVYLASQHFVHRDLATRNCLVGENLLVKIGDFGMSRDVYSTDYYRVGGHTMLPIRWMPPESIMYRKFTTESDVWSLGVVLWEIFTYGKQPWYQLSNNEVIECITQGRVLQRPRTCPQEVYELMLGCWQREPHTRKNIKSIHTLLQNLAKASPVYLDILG
# Protocol: 2.3.2. Dissection of Embryonic Primary Cortical Neurons. Neurons were obtained from embryonic brains as described elsewhere.^2 Briefly, time-pregnant mouse was sacrificed by cervical dislocation and the embryos were extracted at embryonic day 16 (E16). Cerebral cortices were dissected from the mouse embryos and meninges were removed in a solution of Hank's Balanced Salt Solution (HBSS) with 1% pen-strep (Invitrogen) and then digested with trypsin (Invitrogen) and DNAse (Sigma-Aldrich) for 10 min at 37° C. The tissue was mechanically dissociated, centrifuged at 1000 g for 5 min, and resuspended in CO2-equilibrated Neurobasal (NB) neuronal culture medium (Invitrogen) supplemented with 10% normal horse serum (NHS) (Invitrogen), 1% pen-strep (Invitrogen), 0.5 mM L-glutamine (Invitrogen), and 5.8 μL NaHCO3/mL (Sigma-Aldrich). The cell suspension was pre-plated at 37° C. for 30 min. Afterwards, the supernatant was collected, passed through a cell strainer with 100 μm pore size and centrifuged at 1000 g for 5 min. The pellet was resuspended in NB neuronal culture medium (1% NHS, 1% pen-strep, 0.5 mM L-glutamine, 22 μM glutamic acid (Sigma-Aldrich), 2% B27 (Gibco), and 5.8 μL NaHCO3/mL (Sigma-Aldrich), and plated at different densities (depending on the type of experiment, see below) directly on tissue culture plates coated with poly-D-lysine (Sigma-Aldrich). After 24 hs, the medium was replaced with serum-free neuronal culture medium (1% pen-strep, 0.5 mM L-glutamine, 2% B27, 5.8 μL NaHCO3/mL). Under these conditions, we obtained a neuron-enriched culture with a composition of approximately 10% glial cells.
# BDNF PA Treatments and Cell Culture Procedures. Treatments were prepared by dissolving PA (including E2 Filler, E2 Filler+E4PEG, E2 Filler+Linear BDNF, E2 Filler+BDNF PAs) and BDNF peptide at different concentrations (0.5, 1.0 or 5.0 μM), in media without serum or B27 supplement or starvation media. Unless otherwise noted, BDNF PA, Linear BDNF PA, or E4PEG PAs were co-assembled at 10 mol % with E2 filler PA (total concentration of PA was 5.0, 10.0, or 50.0 μM respectively). For the co-assembly ratio study, BDNF PA was co-assembled at 10, 20, 50, 70, 90, and 100 mol %. Human/Murine/Rat BDNF protein (Peprotech) was resuspended at different concentrations (0.25, 0.5 and 1 nM) in starvation media.
# For western blot, cells were cultured in 6 well plates at a density of approximately 900,000 cells/well for 14 DIV before being treated. Treatments were added for 2, 4, 6, 8, 12 or 24 h in vitro before protein was harvested. […] Protein was extracted after six hours of treatment.
# Western Blot. Protein was extracted from primary neuronal cultures with Halt Protease and Phosphatase Inhibitor Cocktail (Thermo Scientific) and a BCA assay (Thermo Scientific) was performed to determine protein content of each sample. Cell protein was loaded into and separated using a 4-20% SDS-PAGE gel (Bio-Rad). It was then electrotransferred from the gel to a nitrocellulose membrane (Bio-Rad). The membranes were blocked with 5% milk solution (Bio-Rad) for 30 minutes followed by an overnight incubation with primary antibodies at 4° C. The following primary antibodies were used: rabbit anti-pTrkB (1:1000, Cell Signaling), rabbit anti-TrkB (1:1000, Cell Signaling), rabbit anti-Actin (1:2000, Sigma Aldrich), mouse anti-Actin (1:2000, Sigma Aldrich), rabbit anti-pPLCγ (1:1000, Cell Signaling), rabbit anti-PLCγ (1:1000, Cell Signaling), rabbit anti-pAKT (1:2000, Cell Signaling), mouse anti-AKT (1:2000, Cell Signaling), rabbit anti-pERK1+ERK2 (1:1000, Abcam), rabbit anti-ERK 1/2 (1:1000, Cell Signaling), rabbit anti-PSD95 (1:1000, Abcam), rabbit anti-MAP-2 (1:2000, BioLegend), and mouse anti-Tuj-1 (1:1000, BioLegend). Membranes were then incubated with their corresponding secondary HRP-conjugated antibodies (1:1000; ThermoFisher). Protein signals were detected using Radiance Bioluminescent ECL substrate (Azure Biosystems). […]
Molecule,MAP2 expression (neuronal maturation marker) (neuronal cells),"dose dependence of TrkB activation (TrkB receptor; 0.5, 1.0 and 5.0 μM, 6 h)","activation of TrkB receptor, co-assembly ratio study (TrkB receptor; 10-50 mol % BDNF PA co-assembled with E2 Filler PA, 6 h)","activation of TrkB receptor, co-assembly ratio study (TrkB receptor; 90-100 mol % BDNF PA (do not form fibers), 6 h)",TrkB phosphorylation after pre-treatment with inhibitor K252a (TrkB receptor),"persistence of p-TrkB (TrkB receptor; BDNF protein 0.25 nM, time course to 24 h)"
"CCCCCCCCCCCCCCCC(=O)N[C@H](C(=O)N[C@H](C(=O)N[C@@H](C)C(=O)N[C@@H](C)C(=O)N[C@@H](CCC(=O)O)C(=O)N[C@@H](CCC(=O)O)C(=O)N[C@@H](CCC(=O)O)C(=O)N[C@@H](CCC(=O)O)C(=O)NCCOCCOCCOCCOCCOCCOCCC(=O)NCCCC[C@@H]1NC(=O)[C@H]2CCCN2C(=O)[C@H](CCCNC(=N)N)NC(=O)[C@H](CCCCN)NC(=O)[C@H](CCCCN)NC1=O)C(C)C)C(C)C [BDNF PA, RKK(aK)(dP)-(PEG6 Spacer)-EEEEAAVV-C16 (SEQ ID NO: 5)] (I: Palmitoyl-VVAAEEEE[PEG6] / II: cyclo(KKKR[dP]); amide I:C-II:1)",significant increase,no dose-dependent activation of TrkB,increase in activation of TrkB receptor in comparison with the control conditions,unable to activate the receptor to the same degree,completely blocked,–
B1,significant increase,–,–,–,completely blocked,no longer showing p-TrkB after 12 h

# — patent publication US12122811B2, “BDNF mimetic peptide amphiphiles” (Northwestern University, priority 2018, dated 2024)
